The source of these data is article PMC11005040, “Photoactivatable Ruthenium Complexes Containing Minimal Straining Benzothiazolyl-1,2,3-triazole Chelators for Cancer Treatment” (Inorganic Chemistry, 2024).

Data set [1] concerns A375 cells. As to the kind of experiment: Photoactivation studies (phototoxicity, MTT), dark vs blue light. The format is cell-based, human. How it is done: (§1) For dark cytotoxic screening, A2780, CHO, HeLa, and A375 cells were cultured in 96-well plates at a density of 5 × 10^3 cells/well in complete medium and incubated for 24 h at 310 K and 5% CO2 in a humidified incubator. Serial dilutions of tested compounds in cell culture media were then added at final concentrations in the range of 0 to 100 μM in a final volume of 100 μL/well (%v/v DMSO below 0.4%) for 48 h prior to MTT test. For photoactivation studies, HeLa and A375 cells were used. Treatments were added at final concentrations in the range of 0 to 500 μM. After 1 h incubation with the compounds, light irradiation treatments were applied using a LED photoreactor (Luzchem; Canada) fitted with LED lamps centered at 465 nm (final intensity 4 mW/cm^2) for 1 h. Dark control analogues were directly kept in the dark for 2 h. After incubation periods, cells were washed with saline PBS buffer and loaded with 50 μL of MTT solution (1 mg/mL) for additional 4 h, then removed and 50 μL DMSO was added to solubilize the purple formazan crystals formed in active cells. The absorbance was measured at 570 nm using a microplate reader (FLUOstar Omega) and the IC50 values were calculated based on the inhibitory rate curves using the next the equation [drawing 2] where I represents the percentage inhibition of viability observed, Imax is the maximal inhibitory effect, IC50 is the concentration that inhibits 50% of maximal growth, C is the concentration of the treatment, and n is the slope of the semilogarithmic dose–response sigmoidal curves. The nonlinear fitting was performed using SigmaPlot 14.0 software. Two independent experiments were performed with triplicate points per concentration level (n = 3).

For data set [2], the system named is HeLa cells. The description is as above. The class given is cell-based, human. The protocol:
as §1

The subject of a further data set is CHO cells. Put plainly: Dark cytotoxic screening, MTT test, 48 h. The class given is cell-based. To be noted: 48 h in the dark. The protocol:
as §1

Data set [3] concerns A375 cells. As to the kind of experiment: Dark cytotoxic screening, MTT test, 48 h. The class given is cell-based, human. To be noted: 48 h in the dark. How it is done: as §1
On the technique in general: Formazan colour is commonly taken as a measure of viable cells.

Data set [4] has as its system HeLa cells. As to the kind of experiment: Dark cytotoxic screening, MTT test, 48 h. The class given is cell-based, human. To be noted: 48 h in the dark. How it is done:
as §1

Another data set deals with A2780 cells. Put plainly: Dark cytotoxic screening, MTT test, 48 h. The class given is cell-based, human. To be noted: 48 h in the dark. The protocol: as §1
The test system of data set [5] is HeLa cells. Put plainly: Cell uptake by confocal microscopy. The format is cell-based, human. To be noted: 15 μM, 2 h incubation; for Cellular uptake: λexc 450 nm. The protocol:
HeLa cells were seeded onto Ibidi μ-slides at 10^4 cells/cm^2 in a complete medium and incubated for 24 h at 310 K and 5% CO2 in a humidified incubator. Compounds were added at indicated concentrations for 2 h. […]

The subject of data set [6] is HeLa cells. As to the kind of experiment: Confocal microscopy imaging after blue light irradiation. The class given is cell-based, human. To be noted: 15 μM. The protocol: HeLa cells were seeded onto Ibidi μ-slides at 10^4 cells/cm^2 in a complete medium and incubated for 24 h at 310 K and 5% CO2 in a humidified incubator. […] Cells were then washed with PBS twice and imaged under confocal microscopy (STELLARIS Leica Microsystems) using 405 nm excitation laser.

For data set [7], the system named is HeLa cells. More on the design: method as in doi:10.1016/j.dyepig.2022.110905. To be noted: λexc 405 nm; cited from earlier work.
Where [8] appears, read: hypoxia (2% O2), 1 h incubation then blue light 465 nm, 4 mW/cm^2, 1 h, read-out: IC50 A375 blue light.
[9] abbreviates: hypoxia (2% O2), dark, read-out: IC50 A375 dark.
The mark [10] stands for this setting: normoxia (21% O2), 1 h incubation then blue light 465 nm, 4 mW/cm^2, 1 h, read-out: IC50 A375 blue light.
The mark [11] stands for this setting: normoxia (21% O2), dark 2 h, read-out: IC50 A375 dark.
Where [12] appears, read: hypoxia (2% O2), 1 h incubation then blue light 465 nm, 4 mW/cm^2, 1 h, read-out: IC50 HeLa blue light.
[13] abbreviates: hypoxia (2% O2), dark, read-out: IC50 HeLa dark.
Setting [14] is: normoxia (21% O2), 1 h incubation then blue light 465 nm, 4 mW/cm^2, 1 h, read-out: IC50 HeLa blue light.
Setting [15] is: normoxia (21% O2), dark 2 h, read-out: IC50 HeLa dark.

The structures appear in SMILES notation. Read-outs that look alike come from different tables or passages of the source.

A word on the IC50: it is the midpoint of a concentration-inhibition curve. For `FC(F)(F)c1ccc(-n2cc(-c3nc4ccccc4s3)nn2)cc1.O=S(=O)([O-])C(F)(F)F.O=S(=O)([O-])C(F)(F)F.[Ru+2].c1cnc2c(c1)ccc1cccnc12.c1cnc2c(c1)ccc1cccnc12` [Ru3, [Ru(phen)2(L3)][OTf]2], the IC50 in the data set on A375 cells [1] (setting [8]) is more than 100 µM; in the data set on A375 cells [1] (setting [9]), more than 500 µM; in the data set on A375 cells [1] (setting [10]), 73.5 ± 4.3 µM; in the data set with A375 cells [1] (setting [11]), more than 500 µM; in the data set with HeLa cells [2] (setting [12]), 85.2 ± 4.4 µM; in the data set with HeLa cells [2] (setting [13]) it was more than 500 µM. Further, the IC50 in the data set on HeLa cells [2] (setting [14]) was 73.5 ± 4.2 µM; in the data set with HeLa cells [2] (setting [15]), more than 500 µM; in the data set on CHO cells it was more than 100 µM; with A375 cells [3], more than 100 µM; in the data set with HeLa cells [4] it was more than 100 µM; with A2780 cells, more than 100 µM. For the same compound, the “P.I. A375 (IC50 dark/IC50 465 nm)” value in the data set with A375 cells [1] (normoxia) is on record as more than 6.8. Further, the figures for the “P.I. HeLa (IC50 dark/IC50 465 nm)” value in the data set on HeLa cells [2] (hypoxia (2% O2)) and in the data set on HeLa cells [2] (normoxia) were more than 5.9 and more than 6.8, respectively.
Regarding `[NH2][Pt]([NH2])([Cl])[Cl]` [CDDP, cisplatin, reference compound], the IC50 in the data set with CHO cells turned out to be 7.8 ± 0.4 µM; with HeLa cells [4] it was 21 ± 2 µM; in the data set on A2780 cells, 1.9 ± 0.1 µM.
Regarding `O=S(=O)([O-])C(F)(F)F.O=S(=O)([O-])C(F)(F)F.O=[N+]([O-])c1ccc(-n2cc(-c3nc4ccccc4s3)nn2)cc1.[Ru+2].c1cnc2c(c1)ccc1cccnc12.c1cnc2c(c1)ccc1cccnc12` [Ru4, [Ru(phen)2(L4)][OTf]2], the “P.I. A375 (IC50 dark/IC50 465 nm)” value in the data set on A375 cells [1] (hypoxia (2% O2)) is more than 9.6; in the data set on A375 cells [1] (normoxia) it was more than 26.6. The IC50 with A375 cells [1] (setting [8]) is 51.9 ± 2.4 µM; in the data set on A375 cells [1] (setting [9]), more than 500 µM; in the data set with A375 cells [1] (setting [10]), 18.8 ± 3.7 µM; in the data set with A375 cells [1] (setting [11]) it was more than 500 µM; in the data set with HeLa cells [2] (setting [12]) it was 41.7 ± 2.7 µM; in the data set on HeLa cells [2] (setting [13]), more than 500 µM. Also, the IC50 is 33.8 ± 5.5 µM in the data set with HeLa cells [2] (setting [14]); more than 500 µM in the data set on HeLa cells [2] (setting [15]); more than 100 µM in the data set with CHO cells; more than 100 µM in the data set with A375 cells [3]; more than 100 µM in the data set with HeLa cells [4]; more than 100 µM with A2780 cells. Also, the “P.I. HeLa (IC50 dark/IC50 465 nm)” value is on record as more than 12.0 in the data set on HeLa cells [2] (hypoxia (2% O2)) and more than 14.8 in the data set with HeLa cells [2] (normoxia). The Intracellular distribution entry in the data set with HeLa cells [5] is “across the cytoplasm in punctate deposits”. For the same compound, in the data set on HeLa cells [5], the Cellular uptake result was “excellent and rapid cellular uptake”.
For the compound `CN(C)c1ccc(-n2cc(-c3nc4ccccc4s3)nn2)cc1.O=S(=O)([O-])C(F)(F)F.O=S(=O)([O-])C(F)(F)F.[Ru+2].c1cnc2c(c1)ccc1cccnc12.c1cnc2c(c1)ccc1cccnc12` [Ru5, [Ru(phen)2(L5)][OTf]2], the IC50 in the data set with A375 cells [1] (setting [8]) was more than 100 µM; in the data set with A375 cells [1] (setting [9]), more than 500 µM; with A375 cells [1] (setting [10]) it was 27.1 ± 6.2 µM; in the data set with A375 cells [1] (setting [11]) it was more than 500 µM; in the data set with HeLa cells [2] (setting [12]), 57.2 ± 6.4 µM; in the data set on HeLa cells [2] (setting [13]), more than 500 µM. The IC50 is 41.8 ± 3.9 µM in the data set on HeLa cells [2] (setting [14]); more than 500 µM with HeLa cells [2] (setting [15]); more than 100 µM in the data set on CHO cells; more than 100 µM in the data set on A375 cells [3]; more than 100 µM with HeLa cells [4]; more than 100 µM with A2780 cells. The “P.I. A375 (IC50 dark/IC50 465 nm)” value in the data set with A375 cells [1] (normoxia) is given as more than 18.5. Also, the “P.I. HeLa (IC50 dark/IC50 465 nm)” value is on record as more than 8.7 in the data set on HeLa cells [2] (hypoxia (2% O2)) and more than 12.0 in the data set with HeLa cells [2] (normoxia). Moreover, the Intracellular distribution entry in the data set with HeLa cells [5] was “across the cytoplasm in punctate deposits”. For the same compound, in the data set with HeLa cells [5], the Cellular uptake entry was “excellent and rapid cellular uptake”. In addition, the “Cell cytotoxicity by imaging, 1 min irradiation” value in the data set with HeLa cells [6] (1 h, then blue light 1 min) is on record as “no cell cytotoxicity was observed”. Moreover, the “Cell cytotoxicity by imaging, 1 h irradiation” value with HeLa cells [6] (then blue light 1 h) is given as “discernible cell damage is evident”.
Regarding `Cc1ccc(-n2cc(-c3nc4ccccc4s3)nn2)cc1.O=S(=O)([O-])C(F)(F)F.O=S(=O)([O-])C(F)(F)F.[Ru+2].c1cnc2c(c1)ccc1cccnc12.c1cnc2c(c1)ccc1cccnc12` [Ru1, [Ru(phen)2(L1)][OTf]2], the “P.I. A375 (IC50 dark/IC50 465 nm)” value with A375 cells [1] (hypoxia (2% O2)) is listed as more than 7.5; in the data set with A375 cells [1] (normoxia), more than 24.4. For the same compound, the IC50 with A375 cells [1] (setting [8]) is 66.9 ± 6.1 µM; in the data set on A375 cells [1] (setting [9]) it was more than 500 µM; in the data set with A375 cells [1] (setting [10]), 20.6 ± 1.5 µM; in the data set with A375 cells [1] (setting [11]), more than 500 µM; in the data set with HeLa cells [2] (setting [12]), 70.2 ± 5 µM; in the data set with HeLa cells [2] (setting [13]), more than 500 µM. The 50% inhibitory concentration (IC50) in the data set with HeLa cells [2] (setting [14]) is 48 ± 3.4 µM; with HeLa cells [2] (setting [15]), more than 500 µM; with CHO cells, more than 100 µM; in the data set on A375 cells [3], more than 100 µM; with HeLa cells [4] it was more than 100 µM; in the data set with A2780 cells, more than 100 µM. For the same compound, the entries for the “P.I. HeLa (IC50 dark/IC50 465 nm)” value in the data set on HeLa cells [2] (hypoxia (2% O2)) and in the data set with HeLa cells [2] (normoxia) were more than 7.1 and more than 10.4, respectively.
As to `CN(C)c1ccc(-n2cc(-c3nc4ccccc4s3)nn2)cc1` [L5], the Intracellular distribution entry in the data set with HeLa cells [7] is “evenly distributed around cell cytoplasm but not within nuclei”.
